Experimental data from US20160158200A1, “Combinations of Hepatitis C Virus Inhibitors” (priority 2013, published 2016).

Tested on: HCV genotype-1a variant with glutamine 30 changed to glutamate in the NS5A protein
Type: cell-based
Details: test compound titrated with BMS-790052 fixed at 200 nM; genotype 1a Q30E replicon
Method in brief: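 Synergy was assessed by combining several fixed amounts of an NS5A-targeting compound with a titration of the second compound of interest.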

Structure (SMILES)	Fold-Synergistic 1a (Q30E) [fold]
CCOC(=O)NC(C)(C)C(=O)N[C@H](c1nc(-c2ccc(-c3ccc(-c4c[nH]c([C@@H](NC(=O)C(C)(C)NC(=O)OCC)C(C)(C)C)n4)cc3)cc2)c[nH]1)C(C)(C)C [Compound Q-2]	>100
CC(C)OC(=O)NC(C)(C)C(=O)N[C@H](c1nc(-c2ccc(-c3ccc(-c4c[nH]c([C@@H](NC(=O)C(C)(C)NC(=O)OC(C)C)C(C)(C)C)n4)cc3)cc2)c[nH]1)C(C)(C)C [Compound Q-3]	>100
CC(C)(NC(=O)OCCF)C(=O)N[C@H](c1nc(-c2ccc(-c3ccc(-c4c[nH]c([C@@H](NC(=O)C(C)(C)NC(=O)OCCF)C(C)(C)C)n4)cc3)cc2)c[nH]1)C(C)(C)C [Compound Q-4]	>100
CC(C)(NC(=O)OC1CCCCC1)C(=O)N[C@H](c1nc(-c2ccc(-c3ccc(-c4c[nH]c([C@@H](NC(=O)C(C)(C)NC(=O)OC5CCCCC5)C(C)(C)C)n4)cc3)cc2)c[nH]1)C(C)(C)C [Compound Q-6]	>100
CC(C)(C)[C@H](NC(=O)C(C)(C)N1CCOCC1)c1nc(-c2ccc(-c3ccc(-c4c[nH]c([C@@H](NC(=O)C(C)(C)N5CCOCC5)C(C)(C)C)n4)cc3)cc2)c[nH]1 [Compound Q-7]	>100
CC(C)[C@H](NC(=O)C1(C)CC1)c1ncc(-c2ccc(-c3ccc(-c4cnc([C@@H](NC(=O)C5(C)CC5)C(C)C)[nH]4)cc3)cc2)[nH]1 [Compound S-1]	>100
CC(C)[C@H](NC(=O)C1(c2ccc(Cl)cc2)CCCC1)c1ncc(-c2ccc(-c3ccc(-c4cnc([C@@H](NC(=O)C5(c6ccc(Cl)cc6)CCCC5)C(C)C)[nH]4)cc3)cc2)[nH]1 [Compound S-2]	>100
CC(C)[C@H](NC(=O)CC1CCCC1)c1ncc(-c2ccc(-c3ccc(-c4cnc([C@@H](NC(=O)CC5CCCC5)C(C)C)[nH]4)cc3)cc2)[nH]1 [Compound S-3]	>100
CC(C)[C@H](NC(=O)c1ccccc1)c1ncc(-c2ccc(-c3ccc(-c4cnc([C@@H](NC(=O)c5ccccc5)C(C)C)[nH]4)cc3)cc2)[nH]1 [Compound S-5]	>100
CC(C)[C@H](NC(=O)c1c(F)cccc1Cl)c1ncc(-c2ccc(-c3ccc(-c4cnc([C@@H](NC(=O)c5c(F)cccc5Cl)C(C)C)[nH]4)cc3)cc2)[nH]1 [Compound S-6]	>100
CC(C)C(=O)N[C@H](c1ncc(-c2ccc(-c3ccc(-c4cnc([C@@H](NC(=O)C(C)C)C(C)C)[nH]4)cc3)cc2)[nH]1)C(C)C [Compound S-7]	>100
CC(C)[C@H](NC(=O)c1ccco1)c1ncc(-c2ccc(-c3ccc(-c4cnc([C@@H](NC(=O)c5ccco5)C(C)C)[nH]4)cc3)cc2)[nH]1 [Compound S-8]	>100
CC(C)[C@H](NC(=O)Cc1cccc2ccccc12)c1ncc(-c2ccc(-c3ccc(-c4cnc([C@@H](NC(=O)Cc5cccc6ccccc56)C(C)C)[nH]4)cc3)cc2)[nH]1 [Compound S-9]	>10
CC(C)[C@H](NC(=O)c1ccc2ccccc2c1)c1ncc(-c2ccc(-c3ccc(-c4cnc([C@@H](NC(=O)c5ccc6ccccc6c5)C(C)C)[nH]4)cc3)cc2)[nH]1 [Compound S-10]	>100
CC(C)[C@H](NC(=O)C(F)F)c1ncc(-c2ccc(-c3ccc(-c4cnc([C@@H](NC(=O)C(F)F)C(C)C)[nH]4)cc3)cc2)[nH]1 [Compound S-11]	>100
CC(C)[C@H](NC(=O)C(c1ccccc1)c1ccccc1)c1ncc(-c2ccc(-c3ccc(-c4cnc([C@@H](NC(=O)C(c5ccccc5)c5ccccc5)C(C)C)[nH]4)cc3)cc2)[nH]1 [Compound S-12]	>100
COCC(=O)N[C@H](c1ncc(-c2ccc(-c3ccc(-c4cnc([C@@H](NC(=O)COC)C(C)C)[nH]4)cc3)cc2)[nH]1)C(C)C [Compound S-13]	>10
CC(C)[C@H](NC(=O)c1cccs1)c1ncc(-c2ccc(-c3ccc(-c4cnc([C@@H](NC(=O)c5cccs5)C(C)C)[nH]4)cc3)cc2)[nH]1 [Compound S-14]	>100
CC(C)[C@H](NC(=O)c1cnccn1)c1ncc(-c2ccc(-c3ccc(-c4cnc([C@@H](NC(=O)c5cnccn5)C(C)C)[nH]4)cc3)cc2)[nH]1 [Compound S-15]	>10
CC(C)[C@H](NC(=O)c1ccc(F)c(F)c1)c1ncc(-c2ccc(-c3ccc(-c4cnc([C@@H](NC(=O)c5ccc(F)c(F)c5)C(C)C)[nH]4)cc3)cc2)[nH]1 [Compound S-16]	>100
CC(C)[C@H](NC(=O)c1cccc(-c2ccccc2)c1)c1ncc(-c2ccc(-c3ccc(-c4cnc([C@@H](NC(=O)c5cccc(-c6ccccc6)c5)C(C)C)[nH]4)cc3)cc2)[nH]1 [Compound S-17]	>100

Structure (SMILES)	Fold-Synergistic 1a (Q30E) [fold]
Cc1cc(C(=O)N[C@H](c2ncc(-c3ccc(-c4ccc(-c5cnc([C@@H](NC(=O)c6cc(C)on6)C(C)C)[nH]5)cc4)cc3)[nH]2)C(C)C)no1 [Compound S-18]	>100
CC(C)[C@H](NC(=O)c1ccc2nccnc2c1)c1ncc(-c2ccc(-c3ccc(-c4cnc([C@@H](NC(=O)c5ccc6nccnc6c5)C(C)C)[nH]4)cc3)cc2)[nH]1 [Compound S-19]	>100
CC(C)[C@H](NC(=O)C1CC1)c1ncc(-c2ccc(-c3ccc(-c4cnc([C@@H](NC(=O)C5CC5)C(C)C)[nH]4)cc3)cc2)[nH]1 [Compound S-20]	>100
CC(C)C(NC(=O)C1CC1c1ccccc1)c1ncc(-c2ccc(-c3ccc(-c4cnc(C(NC(=O)C5CC5c5ccccc5)C(C)C)[nH]4)cc3)cc2)[nH]1 (stereo not drawn) [Compound S-21]	>100
CC(C)[C@H](NC(=O)C1CCC1)c1ncc(-c2ccc(-c3ccc(-c4cnc([C@@H](NC(=O)C5CCC5)C(C)C)[nH]4)cc3)cc2)[nH]1 [Compound S-22]	>100
CC(C)[C@H](NC(=O)C1CCCC1)c1ncc(-c2ccc(-c3ccc(-c4cnc([C@@H](NC(=O)C5CCCC5)C(C)C)[nH]4)cc3)cc2)[nH]1 [Compound S-23]	>100
COc1ccc(C2(C(=O)N[C@H](c3ncc(-c4ccc(-c5ccc(-c6cnc([C@@H](NC(=O)C7(c8ccc(OC)cc8)CCCC7)C(C)C)[nH]6)cc5)cc4)[nH]3)C(C)C)CCCC2)cc1 [Compound S-24]	>100
CC(C)[C@H](NC(=O)CCC1CCCC1)c1ncc(-c2ccc(-c3ccc(-c4cnc([C@@H](NC(=O)CCC5CCCC5)C(C)C)[nH]4)cc3)cc2)[nH]1 [Compound S-25]	>100
CC(C)[C@H](NC(=O)CC1CCCCC1)c1ncc(-c2ccc(-c3ccc(-c4cnc([C@@H](NC(=O)CC5CCCCC5)C(C)C)[nH]4)cc3)cc2)[nH]1 [Compound S-26]	>100
CC(C)[C@H](NC(=O)c1ccccc1Oc1ccccc1)c1ncc(-c2ccc(-c3ccc(-c4cnc([C@@H](NC(=O)c5ccccc5Oc5ccccc5)C(C)C)[nH]4)cc3)cc2)[nH]1 [Compound S-27]	>10
COc1ccc(C(=O)N[C@H](c2ncc(-c3ccc(-c4ccc(-c5cnc([C@@H](NC(=O)c6ccc(OC)cc6)C(C)C)[nH]5)cc4)cc3)[nH]2)C(C)C)cc1 [Compound S-28]	>100
CC(C)[C@H](NC(=O)CC#N)c1ncc(-c2ccc(-c3ccc(-c4cnc([C@@H](NC(=O)CC#N)C(C)C)[nH]4)cc3)cc2)[nH]1 [Compound S-29]	>100
CC(C)[C@H](NC(=O)CC(c1ccccc1)c1ccccc1)c1ncc(-c2ccc(-c3ccc(-c4cnc([C@@H](NC(=O)CC(c5ccccc5)c5ccccc5)C(C)C)[nH]4)cc3)cc2)[nH]1 [Compound S-30]	>100
CCC(=O)N[C@H](c1ncc(-c2ccc(-c3ccc(-c4cnc([C@@H](NC(=O)CC)C(C)C)[nH]4)cc3)cc2)[nH]1)C(C)C [Compound S-31]	>100
CC(C)CCC(=O)N[C@H](c1ncc(-c2ccc(-c3ccc(-c4cnc([C@@H](NC(=O)CCC(C)C)C(C)C)[nH]4)cc3)cc2)[nH]1)C(C)C [Compound S-32]	>100
CCCC(=O)N[C@H](c1ncc(-c2ccc(-c3ccc(-c4cnc([C@@H](NC(=O)CCC)C(C)C)[nH]4)cc3)cc2)[nH]1)C(C)C [Compound S-33]	>100
CC(C)[C@H](NC(=O)C(C)(C)C)c1ncc(-c2ccc(-c3ccc(-c4cnc([C@@H](NC(=O)C(C)(C)C)C(C)C)[nH]4)cc3)cc2)[nH]1 [Compound S-34]	>100
CC(C)[C@H](NC(=O)COc1ccccc1)c1ncc(-c2ccc(-c3ccc(-c4cnc([C@@H](NC(=O)COc5ccccc5)C(C)C)[nH]4)cc3)cc2)[nH]1 [Compound S-35]	>100
CC(C)[C@H](NC(=O)Cc1ccccc1)c1ncc(-c2ccc(-c3ccc(-c4cnc([C@@H](NC(=O)Cc5ccccc5)C(C)C)[nH]4)cc3)cc2)[nH]1 [Compound S-36]	>10
CC(C)[C@H](NC(=O)Cc1ccccc1F)c1ncc(-c2ccc(-c3ccc(-c4cnc([C@@H](NC(=O)Cc5ccccc5F)C(C)C)[nH]4)cc3)cc2)[nH]1 [Compound S-37]	>100
CC(C)[C@H](NC(=O)Cc1ccccc1Cl)c1ncc(-c2ccc(-c3ccc(-c4cnc([C@@H](NC(=O)Cc5ccccc5Cl)C(C)C)[nH]4)cc3)cc2)[nH]1 [Compound S-38]	>100
